The source of these data is US20240287054A1, “COMPOUNDS THAT BIND NON-CANONICAL G-QUADRUPLEX STRUCTURES AND METHODS OF MAKING AND USING THE SAME” (The U.S.A., as Represented by the Secretary, Department of …, priority 2021, published 2024).

In experiment [1] the test system is 12 different G4 oligos as well as non-G4 oligos (dsDNA and ssDNA). Nature of the experiment: Small-scale DNA G4 microarray binding selectivity. Conditions: B33 at 2.5 μM. The method, then:
In this example, a small-scale DNA G4 microarray containing 12 different G4 oligos as well as non-G4 oligos (dsDNA and ssDNA) was fabricated and tested (Table 4). To start with, a SA-coated glass surface was prepared. An amino-functionalized glass slide was firstly modified with a solution of N, N′-disuccinimidyl carbonate (DSC, 1.0 M) and N, N-diisopropylethylamine (DIPEA, 1.0 M) in DMF overnight at room temperature. After being washed successively with EtOH, Milli-Q water (5 min each) and dried with N2 gas, the slide was incubated with 1 mg/mL of SA solution for 12 h (overnight) in a 4° C. fridge, followed by blocking the surface with EA buffer for 30 minutes. Then, the slide was rinsed with PBS buffer and Milli-Q water, and dried b centrifugation (1,700 g, 2 min).
In parallel, biotin-labeled DNA/RNA oligos were prepared in annealing buffer resulting in 5 μM stock solutions, followed by annealing (according to above methods). Then all the oligo solutions were transferred into a 384-well plate. Next, the microarray printing was conducted by a robotic arrayer (Nanoprint, Arrayit, USA) with a humidity of 60%. After the microarray was fabricated, the slide was placed in a slide box with a piece of wet Kimwipe tissue and incubated at 4° C. for 2 h.
To incubate with the fluorescent compounds (compound B33, thiazole orange (“TO”), and amsacrine), the slide was thoroughly rinsed with PBST, PBS, and water to remove the unbounded oligos. Then, the slide was dried by centrifugation (1,700 g, 2 min) and quickly assembled with microarray gaskets (Agilent, USA), followed by loading the compound solutions. After 1 h incubation, the slide was washed and dried with the above-mentioned method. Finally, the microarray slide was imaged by a fluorescence scanner (Mapix) using green channel and the fluorescence intensities were quantified.

In experiment [2] the test system is dsDNA. In words: SPR binding to dsDNA. The following applies: up to 5 μM compound injection. Background: In SPR one partner is held on a chip, and binding of the other changes the refractive index at the surface.
Experiment [3] deals with MYCN G4 DNA (hairpin minor groove). In words: Fluorescence displacement assay with Hoechst 33258. Type of experiment: binding, human. Here is the method:
Fluorescence displacement assay. Fluorescence displacement assays were carried out by using two classical minor groove binders (Hoechst 33258 and netropsin). Hoechst 33258, as a fluorophore, was prepared at 5 μM concentration in the buffer (10 mM Tris, pH7.0, 100 mM KCl), and then titrated with different concentrations of unlabeled MYCN G4 oligonucleotides. For displacement, either compound MY-1 or netropsin was added into the solution resulting in a final concentration of 5 μM or 50 μM. Fluorescence signals were obtained with an excitation wavelength of 352 nm and an emission wavelength of 500 nm.

Experiment [4] deals with MYCN G4 DNA. Nature of the experiment: Fluorescence quenching of position-labeled MYCN G4 (2-AP at A11/A18/A24, 5′/3′-Cy5). The experiment is classed as binding, human. The method, then: Fluorescence intensity assay. In this disclosure, fluorescence intensity assay (FIA) was used for both validation of hit binding at a single dose and binding affinity determination. For validating hit compounds from SMM screening, 100 μM solution of each compound was prepared in triplicate in a 96 well-plate (Costar, black side clear bottom), resulting in 5% DMSO concentration. 5′Cy5-labeled MYCN G4 DNA was annealed as described above, then added into the well plate resulting in a final concentration of 100 nM. The plate was incubated shaking for 30 min, followed by centrifuging at 500 rpm for 2 minutes. The fluorescence intensity was then measured on a Synergy Mx microplate reader (BioTek) at Ex 649 nm/Em 670 nm. TMPyP4/DMSO were used as positive and negative controls, respectively. In certain examples, compounds were considered binders when a change of >10% change in fluorescence intensity was observed compared to that of negative control (DMSO solution). For binding affinity measurement, small molecule solutions were prepared as serial dilutions in DMSO. Then a final test plate was prepared by adding 5 μL small molecule solutions and 10 μL annealed DNA samples into 85 μL buffer solutions, resulting in the final small molecule concentrations from 0 to 250 μM (5% final DMSO concentration). The fluorescence intensities were normalized, and the binding affinity was calculated by fitting the curve using one-site total model in GraphPad Prism 8.3.1 software. The fluorescence titration using 3′-labeled oligonucleotides was also performed the same way.
2-Aminopurine (2-AP) fluorescence titration. Fluorescence titrations based on 2-aminopurine labeling were performed using the protocol reported previously. Briefly, MYCN G4 oligonucleotide with a 2-AP substitution at either A11 or A18 position was annealed by heating the sample to 95° C. for 5 min and cooling down to RT slowly. The oligonucleotide with folded structure was diluted to 10 μM in Tris buffer (10 mM Tris, pH7.0, 100 mM KCl, 0.005% Tween 20) and prepared in a black 96-well plate (Costar) in triplicate as designed. Small molecules were diluted in DMSO to obtain a series of solutions with concentrations ranging from 0.1 to 5 mM, and then diluted by 20 times added into the plate (5% DMSO final concentration). The final concentration of 2-AP DNA was 1 μM in the well plate. To obtain the background fluorescence, small molecule solutions without DNA were also prepared in the same plate. After incubation for 30 min at RT, the plate was briefly centrifuged and scanned in Synergy Mx microplate reader (BioTek) with Ex 310 nm/Em 365 nm. Fluorescence signals were calculated by averaging the intensities in triplicate wells after subtracting the references. Finally, the binding signals were normalized and the KD value was determined by fitting the curve using a nonlinear sigmoidal dose-response model with a variable slope in GraphPad Prism 8.3.1 software.
To further understand the binding details between compound MY-1 and MYCN G4, a series of FIA studies were designed and performed. […] After incubating 100 μM MY-1 with labeled DNA samples, fluorescence intensities were measured and compared to DMSO controls. Fluorescence of the A11 2-AP DNA sample was quenched by almost 100%, while the quenching percentages were 80% and 70% for A18 and A24 2-AP DNAs, respectively (FIG. 24B, FIGS. 25A-25C). […]

On to `COc1ccc(-c2noc(-c3ccc(NCCCNc4c5ccc(Cl)cc5nc5ccc(OC)cc45)nn3)n2)cc1` [B33, N^1-(6-chloro-2-methoxyacridin-9-yl)-N^3-(6-(3-(4-methoxyphenyl)-1,2,4-oxadiazol-5-yl)pyridazin-3-yl)propane-1,3-diamine], for which, in experiment [1], the “binding to dsDNA/ssDNA in microarray” value is “no binding to dsDNA/ssDNA was observed”; the “binding to hairpin containing G4 DNAs hTERT and BCL2 in microarray” value is “didn't show fluorescence”. Besides, the “binding pattern in G4 microarray” value in experiment [1] (fluorescent compound incubated 1 h) is listed as “only MYCN spots lighted up”. The “binding to dsDNA on SPR” value in experiment [2] is recorded as “did not show any binding to dsDNA”.
Consider `COc1ccc(-c2noc(-c3ccc(NCCCN4CCCC4)nn3)n2)cc1` [MY-1, 6-(3-(4-methoxyphenyl)-1,2,4-oxadiazol-5-yl)-N-(3-(pyrrolidin-1-yl)propyl)pyridazin-3-amine], for which the “displacement of Hoechst 33258 at 5 μM” value in experiment [3] (5 μM competitor) is “no measurable change”. For the same compound, the “displacement of Hoechst 33258 at 50 μM” value in experiment [3] (50 μM competitor) is listed as “partial fluorescence decrease”. In addition, in experiment [4] (100 μM MY-1), the “fluorescence quenching, 3′-Cy5 labeled oligo” value is on record as 0% and the “fluorescence quenching, 5′-Cy5 labeled oligo” value came out at 15%. Besides, in experiment [4] (100 μM MY-1 vs DMSO control), the “fluorescence quenching, A11 2-AP DNA” value is reported as roughly 100%; the “fluorescence quenching, A18 2-AP DNA” value stood at 80%; the “fluorescence quenching, A24 2-AP DNA” value is reported as 70%.
